Columns and labels:
[1] = tested on: P. falciparum CQ-resistant strain W2; test: In vitro antiplasmodial activity, SYBR Green I fluorescence-based method, strain W2; assay type: cell-based; settings: for IC50: Plasmodium falciparum, chloroquine-resistant strain W2, 48 h incubation, read-out: P. falciparum strains IC50 values, W2; for Selectivity index HepG2/W2: SI = CC50 HepG2 / IC50 P. falciparum W2
Protocol: (§1) The in vitro antiplasmodial activities were tested over concentrations ranging from […] against culture-adapted P. falciparum reference strains 3D7 and W2. […] The parasites were cultivated in RPMI medium (Sigma-Aldrich, Lyon, France) supplemented with 0.5% Albumax I (Life Technologies Corporation, Paisley, UK), hypoxanthine (Sigma-Aldrich), and gentamicin (Sigma-Aldrich) with human erythrocytes and were incubated at 37 °C in a candle jar, as described previously[43] .The P. falciparum drug susceptibility test was carried out in 96-well flat-bottom sterile plates in a final volume of 250 µl. After 48 h incubation period with the drugs, quantities of DNA in treated and control cultures of parasites in human erythrocytes were quantified using the SYBR Green I (Sigma-Aldrich) fluorescence-based method[44]^,[45]. Briefly, after incubation, plates were frozen at −20 °C until use. Plates were then thawed for 2 h at room temperature, and 100 µl of each homogenised culture was transferred to a well of a 96-well flat-bottom sterile black plate (Nunc, Inc., Rochester, NY) that contained 100 µl of the SYBR Green I lysis buffer (2xSYBR Green, 20 mM Tris base pH 7.5, 5 mM EDTA, 0.008% w/v saponin, 0.08% w/v Triton X-100). […] Plates were incubated for 1 h at room temperature and then read on a fluorescence plate reader (Tecan, Grödig, Austria) using excitation and emission wavelengths of 485 and 535 nm, respectively. IC50 values were calculated by non-linear regression analysis of data from dose-response curves, using TableCurve 2D version 5.0 software (Systat Software, San Jose, CA). IC50 values are reported as means calculated from three independent experiments.

[2] = tested on: P. falciparum CQ-sensitive strain 3D7; test: In vitro antiplasmodial activity, SYBR Green I fluorescence-based method, strain 3D7; assay type: cell-based; settings: for IC50: Plasmodium falciparum, chloroquine-sensitive strain 3D7, 48 h incubation, read-out: P. falciparum strains IC50 values, 3D7; for Selectivity index HepG2/3D7: SI = CC50 HepG2 / IC50 P. falciparum 3D7
Protocol: as §1

[3] = tested on: L. donovani (MHOM/IN/00/DEVI) promastigotes; test: In vitro antileishmanial activity, MTT assay on promastigotes; assay type: cell-based; settings: Leishmania donovani, 72 h incubation, ≥10 = no activity noted at the highest concentration tested
Protocol: L. donovani (MHOM/IN/00/DEVI) used in this study was provided by the CNR Leishmania (Montpellier, France). The effects of the tested compounds on the growth of L. donovani (MHOM/IN/00/DEVI) promastigotes were assessed by MTT assay. Briefly, promastigotes in log-phase in Schneider’s medium supplemented with 20% foetal calf serum (FCS), 2 mM L-glutamine and antibiotics (100 U/ml penicillin and 100 µg/ml streptomycin), were incubated at an average density of 10^6 parasites/ml in sterile 96-well plates with various concentrations of compounds dissolved in DMSO (final concentration less than 0.5% v/v), in duplicate. Appropriate controls treated with DMSO and amphotericin B (reference drug purchased from Sigma-Aldrich) were added to each set of experiments. After 72 h incubation period at 27 °C, parasite metabolic activity was determined. Each well was microscopically examined for precipitate formation. To each well was added 20 µl of 5 mg/ml MTT [3–(4,5-dimethylthiazol-2-yl)-2,5-diphenyltetrazolium bromide)] solution followed by 4 h incubation time. The enzyme reaction was stopped by addition of 100 µl of 50% isopropanol/10% sodium dodecyl sulfate. Plates were vigorously shaken (300 rpm) for 10 min, and the absorbance was measured at 570 nm in a BIO-TEK ELx808 Absorbance Microplate Reader. […] IC50 of the parasite’s growth (half maximal inhibitory concentration or IC50 values) were then calculated from the obtained experimental results using a previously described regression programme.

[4] = tested on: T. brucei brucei AnTat 1.9; test: In vitro antitrypanosomal activity, Alamar Blue assay; assay type: cell-based; settings: for Selectivity index HepG2/Tryp.: SI = CC50 HepG2 / IC50 Trypanosoma brucei brucei; for IC50: Trypanosoma brucei, slender bloodstream trypomastigotes, AnTat 1.9 strain, read-out: Trypanosoma brucei brucei IC50 values, Trypanos Antat 1.9
Protocol: The effects of the tested compounds on the growth of T. brucei brucei were assessed using an Alamar Blue® assay described by Räz et al.[49] T. brucei brucei AnTat 1.9 (IMTA, Antwerpen, Belgium) was cultured in MEM with Earle’s salts, supplemented according to the protocol of Baltz et al.[50] with the following modifications: 0.5 mM mercaptoethanol (Sigma Aldrich), 1.5 mM L-cysteine (Sigma Aldrich), 0.05 mM bathocuproine sulphate (Sigma Aldrich), and 20% heat-inactivated horse serum (Gibco, France) at 37 °C and 5% CO2. Samples were incubated at an average density of 2000 parasites/well in sterile 96-wells plates (Fisher, France) with various concentrations of compounds dissolved in 0.9% NaCl. All doses were tested in duplicate. Appropriate controls treated with solvents 0.9% NaCl or DMSO or with suramin, pentamidine, eflornithine, and fexinidazole (reference drugs purchased from Sigma Aldrich and Fluorochem, UK) were added to each set of experiments. After 69 h incubation period at 37 °C, 10 µl of the viability marker Alamar Blue (Fisher) was added to each well, and the plates were incubated for 5 h. The plates were read in a PerkinElmer ENSPIRE (Germany) microplate reader using an excitation wavelength of 530 nm and an emission wavelength of 590 nm. […] IC50 values were calculated using a nonlinear regression analysis of dose-response curves performed using GraphPad Prism software (La Jolla, CA). IC50 values were calculated from three independent experiments.

[5] = Cytotoxicity evaluation, MTT; assay type: cell-based, human; settings: human
Protocol: These cells are a commonly used human hepatocarcinoma-derived cell line that has characteristics similar to those of primary hepatocytes. These cells express many hepatocyte-specific metabolic enzymes, thus enabling the cytotoxicity of tested product metabolites to be evaluated. […] Duplicate assays were performed for each sample. Each well was microscopically examined for precipitate formation before the medium was aspirated from the wells. After aspiration, 100 µl of MTT solution (0.5 mg/ml in medium without FCS) were then added to each well. […] The MTT solution was removed, and DMSO (100 µl) was added to dissolve the resulting blue formazan crystals. Plates were shaken vigorously (300 rpm) for 5 min. The absorbance was measured at 570 nm with 630 nm as reference wavelength in a BIO-TEK ELx808 Absorbance Microplate Reader. DMSO was used as blank and doxorubicin (Sigma Aldrich) as positive control. Cell viability was calculated as percentage of control (cells incubated without compound). The CC50 was determined from the dose-response curve using the TableCurve 2D version 5.0 software (Systat Software, San Jose, CA)

Compound	IC50 [1] [nM]	Selectivity index HepG2/W2 [1]	IC50 [2] [nM]	Selectivity index HepG2/3D7 [2]	IC50 [3] [nM]	Selectivity index HepG2/Tryp. [4]	IC50 [4] [nM]	CC50 at 72 h [5] [nM]
COc1ccc2nc(-c3ccc(CNCCCCN(C)C)cc3)cc(-c3ccc(CNCCCCN(C)C)cc3)c2c1 [Compound 1i, 6-Methoxy-2,4-bis{4-[(4-dimethylaminobutyl)aminomethyl]phenyl}quinoline]	7920 ± 640	0.45	3090 ± 380	1.16	≥ 10000	5.34	670 ± 91	3580 ± 300
COc1ccc2nc(-c3ccc(CNCCCN(C)C)cc3)cc(-c3ccc(CNCCCN(C)C)cc3)c2c1 [Compound 1j, 6-Methoxy-2,4-bis{4-[(3-dimethylaminopropyl)aminomethyl]phenyl}quinoline]	4210 ± 310	0.59	2650 ± 180	0.94	≥ 10000	4.03	620 ± 70	2500 ± 200
COc1ccc2nc(-c3ccc(CNCCCCN4CCN(C)CC4)cc3)cc(-c3ccc(CNCCCCN4CCN(C)CC4)cc3)c2c1 [Compound 1k, 6-Methoxy-2,4-bis{4-[(4–(4-methylpiperazin-1-yl)butyl)aminomethyl]phenyl}quinoline]	4100 ± 540	1.50	2590 ± 200	2.38	≥ 10000	6.28	980 ± 118	6160 ± 400
COc1ccc2nc(-c3ccc(CNCCCN4CCN(C)CC4)cc3)cc(-c3ccc(CNCCCN4CCN(C)CC4)cc3)c2c1 [Compound 1l, 6-Methoxy-2,4-bis{4-[(3–(4-methylpiperazin-1-yl)propyl)aminomethyl]phenyl}quinoline]	4510 ± 710	0.23	1800 ± 200	0.57	≥ 10000	0.66	1540 ± 164	1020 ± 100
COc1ccc2c(-c3ccc(CNCCCCN(C)C)cc3)cc(-c3ccc(CNCCCCN(C)C)cc3)nc2c1 [Compound 1m, 7-Methoxy-2,4-bis{4-[(4-dimethylaminobutyl)aminomethyl]phenyl}quinoline]	> 40000	–	8980 ± 360	0.60	≥ 10000	5.00	1080 ± 68	5400 ± 300
COc1ccc2c(-c3ccc(CNCCCN(C)C)cc3)cc(-c3ccc(CNCCCN(C)C)cc3)nc2c1 [Compound 1n, 7-Methoxy-2,4-bis{4-[(3-dimethylaminopropyl)aminomethyl]phenyl}quinoline]	1690 ± 240	0.28	3180 ± 360	0.15	≥ 10000	0.40	1200 ± 296	480 ± 100
COc1ccc2c(-c3ccc(CNCCCCN4CCN(C)CC4)cc3)cc(-c3ccc(CNCCCCN4CCN(C)CC4)cc3)nc2c1 [Compound 1o, 7-Methoxy-2,4-bis{4-[(4–(4-methylpiperazin-1-yl)butyl)aminomethyl]phenyl}quinoline]	2260 ± 480	1.47	2410 ± 80	1.38	≥ 10000	2.96	1120 ± 118	3320 ± 500
COc1ccc2c(-c3ccc(CNCCCN4CCN(C)CC4)cc3)cc(-c3ccc(CNCCCN4CCN(C)CC4)cc3)nc2c1 [Compound 1p, 7-Methoxy-2,4-bis{4-[(3–(4-methylpiperazin-1-yl)propyl)aminomethyl]phenyl}quinoline]	2730 ± 760	2.36	4340 ± 500	1.48	≥ 10000	6.37	1010 ± 135	6440 ± 600
CN(C)CCCCNCc1ccc(-c2cc3ccccc3c(-c3ccc(CNCCCCN(C)C)cc3)n2)cc1 [Compound 2a, 1,3-Bis{4-[(4-dimethylaminobutyl)aminomethyl]phenyl}isoquinoline]	6230 ± 800	1.33	1740 ± 360	4.78	≥ 10000	12.98	640 ± 163	8310 ± 1000
CN1CCN(CCCCNCc2ccc(-c3cc4ccccc4c(-c4ccc(CNCCCCN5CCN(C)CC5)cc4)n3)cc2)CC1 [Compound 2c, 1,3-Bis{4-[(4–(4-methylpiperazin-1-yl)butyl)aminomethyl]phenyl}isoquinoline]	4420 ± 560	1.13	1960 ± 580	2.54	≥ 10000	4.53	1100 ± 318	4980 ± 500
CN1CCN(CCCNCc2cccc(-c3nc(-c4cccc(CNCCCN5CCN(C)CC5)c4)c4ccccc4n3)c2)CC1 [Compound 3t, 2,4-Bis{3-[(3–(4-methylpiperazin-1-yl)propyl)aminomethyl]phenyl}quinazoline]	–	–	2240 ± 435	13.20	≥ 10000	14.42	2050 ± 535	29600 ± 2200
c1cc(CNCCCN2CCOCC2)cc(-c2nc(-c3cccc(CNCCCN4CCOCC4)c3)c3ccccc3n2)c1 [Compound 3u, 2,4-Bis{3-[(3-morpholinopropyl)aminomethyl]phenyl}quinazoline]	–	–	430 ± 142	6.14	≥ 10000	3.67	720 ± 70	2640 ± 200

— article PMC6968685 (Journal of Enzyme Inhibition and Medicinal Chemistry, 2020)
